Data set [1] is filed under the species Homo sapiens. The data set can be described thus: Selectivity ratio of IC50 for YES1 (unknown origin) to IC50 for BTK (unknown origin).
In data set [2] the target is Tyrosine-protein kinase Yes (Homo sapiens, UniProt P07947). The data set is described as follows: Inhibition of YES1 (unknown origin).
The target in data set [3] is Receptor tyrosine-protein kinase erbB-4 (Homo sapiens, UniProt Q15303). The data set can be described thus: Inhibition of ERBB4 (unknown origin).
Data set [4] is filed under the species Homo sapiens. The data set is described as follows: Selectivity ratio of IC50 for LYNB (unknown origin) to IC50 for BTK (unknown origin).
Data set [5] addresses T1, Cytoplasmic tyrosine-protein kinase BMX (Homo sapiens, UniProt P51813).
T1 sequence (P51813 whole entry): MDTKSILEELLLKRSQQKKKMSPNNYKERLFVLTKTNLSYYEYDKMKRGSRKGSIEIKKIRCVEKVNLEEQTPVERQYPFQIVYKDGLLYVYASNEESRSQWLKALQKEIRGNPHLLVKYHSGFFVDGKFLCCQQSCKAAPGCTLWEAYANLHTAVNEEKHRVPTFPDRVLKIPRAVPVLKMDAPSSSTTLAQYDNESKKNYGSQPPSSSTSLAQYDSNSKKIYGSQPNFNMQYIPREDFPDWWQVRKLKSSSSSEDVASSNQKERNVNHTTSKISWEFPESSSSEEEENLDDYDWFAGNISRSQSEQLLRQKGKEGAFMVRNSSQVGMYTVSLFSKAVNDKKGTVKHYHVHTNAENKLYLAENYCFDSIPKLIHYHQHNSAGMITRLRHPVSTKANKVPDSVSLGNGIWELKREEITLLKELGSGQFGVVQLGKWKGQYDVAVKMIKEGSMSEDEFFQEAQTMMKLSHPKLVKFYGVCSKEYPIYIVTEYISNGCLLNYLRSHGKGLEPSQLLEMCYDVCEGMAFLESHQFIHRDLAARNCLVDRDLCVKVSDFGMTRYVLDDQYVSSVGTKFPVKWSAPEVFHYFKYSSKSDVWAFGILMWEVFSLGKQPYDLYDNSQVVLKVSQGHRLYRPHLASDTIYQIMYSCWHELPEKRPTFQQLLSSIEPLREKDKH
The data set can be described thus: Inhibition of BMX (unknown origin).

In data set [6] the target is T2, Tyrosine-protein kinase TXK (Homo sapiens, UniProt P42681).
T2 sequence (P42681 whole entry): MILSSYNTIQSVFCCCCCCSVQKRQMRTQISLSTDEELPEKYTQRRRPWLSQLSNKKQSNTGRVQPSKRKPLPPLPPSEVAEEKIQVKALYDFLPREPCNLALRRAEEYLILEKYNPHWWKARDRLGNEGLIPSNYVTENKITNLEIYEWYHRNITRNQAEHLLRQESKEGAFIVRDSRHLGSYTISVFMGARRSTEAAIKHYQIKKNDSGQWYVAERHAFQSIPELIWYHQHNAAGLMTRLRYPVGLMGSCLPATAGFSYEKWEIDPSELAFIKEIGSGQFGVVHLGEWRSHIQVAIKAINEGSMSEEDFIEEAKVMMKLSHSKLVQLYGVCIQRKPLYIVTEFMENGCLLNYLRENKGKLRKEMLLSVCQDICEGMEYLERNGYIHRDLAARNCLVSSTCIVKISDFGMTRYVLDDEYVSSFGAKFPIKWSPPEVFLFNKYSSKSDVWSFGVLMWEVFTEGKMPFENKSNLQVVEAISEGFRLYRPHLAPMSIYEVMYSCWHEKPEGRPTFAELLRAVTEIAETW
The data set can be described thus: Inhibition of TXK (unknown origin).

The target in data set [7] is Tyrosine-protein kinase Lyn (Homo sapiens, UniProt P07948). The data set is described as follows: Inhibition of LYNB (unknown origin).
For data set [8], the species on record is Homo sapiens. The data set is described as follows: Selectivity ratio of IC50 for ERBB4 (unknown origin) to IC50 for BTK (unknown origin).
The target of data set [9] is T3, Tyrosine-protein kinase Tec (Homo sapiens, UniProt P42680).
T3 sequence (P42680 whole entry): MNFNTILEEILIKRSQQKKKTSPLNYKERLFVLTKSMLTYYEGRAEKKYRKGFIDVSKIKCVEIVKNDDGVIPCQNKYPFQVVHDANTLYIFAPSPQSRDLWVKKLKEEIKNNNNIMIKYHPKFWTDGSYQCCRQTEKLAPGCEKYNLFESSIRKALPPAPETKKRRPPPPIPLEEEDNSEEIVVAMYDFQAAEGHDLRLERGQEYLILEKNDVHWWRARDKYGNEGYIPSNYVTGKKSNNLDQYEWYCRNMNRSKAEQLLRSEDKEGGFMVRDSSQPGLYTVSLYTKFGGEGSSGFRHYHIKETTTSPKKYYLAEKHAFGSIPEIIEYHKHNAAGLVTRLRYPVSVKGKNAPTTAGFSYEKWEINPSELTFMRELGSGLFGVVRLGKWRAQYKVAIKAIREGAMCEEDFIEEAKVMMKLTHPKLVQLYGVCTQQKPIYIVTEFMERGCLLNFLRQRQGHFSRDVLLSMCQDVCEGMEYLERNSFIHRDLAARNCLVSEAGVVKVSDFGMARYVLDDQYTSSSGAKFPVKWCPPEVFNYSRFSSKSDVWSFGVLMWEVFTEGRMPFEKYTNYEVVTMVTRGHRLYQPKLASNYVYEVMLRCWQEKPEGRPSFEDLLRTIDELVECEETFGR
The data set is described as follows: Inhibition of TEC (unknown origin).

The target in data set [10] is T4, Tyrosine-protein kinase BTK (Homo sapiens, UniProt Q06187). The data set is described as follows: Inhibition of recombinant full-length His6-tagged BTK (unknown origin) expressed in baculovirus infected Sf9 cells using biotinylated A5 peptide as substrate preincubated for 60 mins followed by substrate addition measured after 120 mins by LANCE TR-FRET assay.
The species entered for data set [11] is Homo sapiens. The data set can be described thus: Selectivity ratio of IC50 for TEC (unknown origin) to IC50 for BTK (unknown origin).
The species entered for data set [12] is Homo sapiens. The data set can be described thus: Selectivity ratio of IC50 for FRK (unknown origin) to IC50 for BTK (unknown origin).
For data set [13], the species on record is Homo sapiens. The data set can be described thus: Selectivity ratio of IC50 for LCK (unknown origin) to IC50 for BTK (unknown origin).
Data set [14] can be described thus: Half life in rat at 10 mg/kg. The conditions noted are these: in vivo. It is filed as ADME, organism-based.
Data set [15] can be described thus: Half life in dog at 2 mg/kg. The format is ADME, organism-based, Canis lupus familiaris. The following applies: in vivo.
The target of data set [16] is T4, Tyrosine-protein kinase BTK. The data set can be described thus: Inhibition of BTK in human PBMC assessed as reduction in anti-IgM-induced MIP1beta.
The species entered for data set [17] is Homo sapiens. The data set can be described thus: Selectivity ratio of IC50 for BMX (unknown origin) to IC50 for BTK (unknown origin).
Data set [18] can be described thus: Total clearance in rat plasma at 10 mg/kg. It is filed as ADME, organism-based.
The target of data set [19] is Tyrosine-protein kinase CSK (Homo sapiens, UniProt P41240). The data set can be described thus: Inhibition of CSK (unknown origin).
In data set [20] the target is Voltage-gated inwardly rectifying potassium channel KCNH2 (Homo sapiens, UniProt Q12809). The data set can be described thus: Inhibition of human ERG by [35S]-MK499 displacement or iKr channel assay.
The species named for data set [21] is Homo sapiens. The data set can be described thus: Selectivity ratio of IC50 for FYN (unknown origin) to IC50 for BTK (unknown origin).
The target in data set [22] is Tyrosine-protein kinase FRK (Homo sapiens, UniProt P42685). The data set can be described thus: Inhibition of FRK (unknown origin).
For data set [23], the species on record is Homo sapiens. The data set is described as follows: Selectivity ratio of IC50 for SRMS (unknown origin) to IC50 for BTK (unknown origin).
The species entered for data set [24] is Homo sapiens. The data set is described as follows: Selectivity ratio of IC50 for SRC (unknown origin) to IC50 for BTK (unknown origin).

The structures appear in SMILES notation. pIC50: −log10 of the molar value.

What is called pIC50 is the negative decadic logarithm of the IC50, by convention in mol/L. For orientation: half-life means the time needed for the level to fall by half in the phase considered. The term clearance denotes the volume of plasma or blood freed of the substance per unit of time.

T4 sequence (Q06187 whole entry): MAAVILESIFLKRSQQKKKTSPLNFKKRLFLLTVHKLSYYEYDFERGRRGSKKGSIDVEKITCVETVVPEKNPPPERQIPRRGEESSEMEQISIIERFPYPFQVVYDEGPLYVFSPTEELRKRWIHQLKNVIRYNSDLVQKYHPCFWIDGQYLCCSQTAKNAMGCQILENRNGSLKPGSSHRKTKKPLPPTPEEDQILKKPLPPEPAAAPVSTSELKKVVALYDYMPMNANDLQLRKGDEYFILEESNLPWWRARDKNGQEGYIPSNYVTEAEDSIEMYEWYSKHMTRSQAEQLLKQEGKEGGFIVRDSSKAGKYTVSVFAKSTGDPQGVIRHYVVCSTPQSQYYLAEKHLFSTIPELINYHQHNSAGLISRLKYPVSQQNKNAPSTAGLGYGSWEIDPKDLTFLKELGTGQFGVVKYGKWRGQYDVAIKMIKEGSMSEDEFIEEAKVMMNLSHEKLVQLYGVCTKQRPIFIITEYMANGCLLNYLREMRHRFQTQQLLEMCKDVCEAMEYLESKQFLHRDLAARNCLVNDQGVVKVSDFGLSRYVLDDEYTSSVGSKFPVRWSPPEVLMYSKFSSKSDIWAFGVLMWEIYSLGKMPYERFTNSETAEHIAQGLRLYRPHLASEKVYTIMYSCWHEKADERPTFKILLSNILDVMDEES
Sequence of Voltage-gated inwardly rectifying potassium channel KCNH2 (Q12809 whole entry): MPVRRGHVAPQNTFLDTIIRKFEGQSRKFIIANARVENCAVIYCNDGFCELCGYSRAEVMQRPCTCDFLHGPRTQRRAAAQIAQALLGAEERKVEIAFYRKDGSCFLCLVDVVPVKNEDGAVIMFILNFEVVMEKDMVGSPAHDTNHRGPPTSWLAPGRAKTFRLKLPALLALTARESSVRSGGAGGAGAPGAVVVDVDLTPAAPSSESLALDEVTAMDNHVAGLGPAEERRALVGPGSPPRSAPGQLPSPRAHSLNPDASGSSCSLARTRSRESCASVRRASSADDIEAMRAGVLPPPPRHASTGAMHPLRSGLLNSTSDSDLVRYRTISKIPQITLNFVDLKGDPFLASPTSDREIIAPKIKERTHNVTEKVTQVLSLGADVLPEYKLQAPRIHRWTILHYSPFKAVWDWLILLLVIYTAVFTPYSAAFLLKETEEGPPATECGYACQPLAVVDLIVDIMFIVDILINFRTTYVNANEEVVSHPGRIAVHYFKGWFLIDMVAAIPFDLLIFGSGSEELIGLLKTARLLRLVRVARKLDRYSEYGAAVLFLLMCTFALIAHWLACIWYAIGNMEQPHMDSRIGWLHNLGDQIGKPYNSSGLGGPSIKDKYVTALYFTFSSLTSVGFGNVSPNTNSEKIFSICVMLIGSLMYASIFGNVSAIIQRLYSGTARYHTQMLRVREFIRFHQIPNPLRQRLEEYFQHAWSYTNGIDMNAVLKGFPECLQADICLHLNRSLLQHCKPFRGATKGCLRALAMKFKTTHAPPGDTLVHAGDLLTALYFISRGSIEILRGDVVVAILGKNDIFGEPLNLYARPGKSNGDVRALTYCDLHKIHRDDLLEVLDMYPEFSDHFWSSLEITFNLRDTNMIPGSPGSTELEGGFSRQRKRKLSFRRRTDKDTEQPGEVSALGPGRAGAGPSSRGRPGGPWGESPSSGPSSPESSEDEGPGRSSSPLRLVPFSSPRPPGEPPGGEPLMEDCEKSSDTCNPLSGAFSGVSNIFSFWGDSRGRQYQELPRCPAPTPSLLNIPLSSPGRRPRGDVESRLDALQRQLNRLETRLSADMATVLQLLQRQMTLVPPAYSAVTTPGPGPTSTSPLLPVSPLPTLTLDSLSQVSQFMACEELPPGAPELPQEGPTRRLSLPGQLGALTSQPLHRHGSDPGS
Sequence of Receptor tyrosine-protein kinase erbB-4 (Q15303 whole entry): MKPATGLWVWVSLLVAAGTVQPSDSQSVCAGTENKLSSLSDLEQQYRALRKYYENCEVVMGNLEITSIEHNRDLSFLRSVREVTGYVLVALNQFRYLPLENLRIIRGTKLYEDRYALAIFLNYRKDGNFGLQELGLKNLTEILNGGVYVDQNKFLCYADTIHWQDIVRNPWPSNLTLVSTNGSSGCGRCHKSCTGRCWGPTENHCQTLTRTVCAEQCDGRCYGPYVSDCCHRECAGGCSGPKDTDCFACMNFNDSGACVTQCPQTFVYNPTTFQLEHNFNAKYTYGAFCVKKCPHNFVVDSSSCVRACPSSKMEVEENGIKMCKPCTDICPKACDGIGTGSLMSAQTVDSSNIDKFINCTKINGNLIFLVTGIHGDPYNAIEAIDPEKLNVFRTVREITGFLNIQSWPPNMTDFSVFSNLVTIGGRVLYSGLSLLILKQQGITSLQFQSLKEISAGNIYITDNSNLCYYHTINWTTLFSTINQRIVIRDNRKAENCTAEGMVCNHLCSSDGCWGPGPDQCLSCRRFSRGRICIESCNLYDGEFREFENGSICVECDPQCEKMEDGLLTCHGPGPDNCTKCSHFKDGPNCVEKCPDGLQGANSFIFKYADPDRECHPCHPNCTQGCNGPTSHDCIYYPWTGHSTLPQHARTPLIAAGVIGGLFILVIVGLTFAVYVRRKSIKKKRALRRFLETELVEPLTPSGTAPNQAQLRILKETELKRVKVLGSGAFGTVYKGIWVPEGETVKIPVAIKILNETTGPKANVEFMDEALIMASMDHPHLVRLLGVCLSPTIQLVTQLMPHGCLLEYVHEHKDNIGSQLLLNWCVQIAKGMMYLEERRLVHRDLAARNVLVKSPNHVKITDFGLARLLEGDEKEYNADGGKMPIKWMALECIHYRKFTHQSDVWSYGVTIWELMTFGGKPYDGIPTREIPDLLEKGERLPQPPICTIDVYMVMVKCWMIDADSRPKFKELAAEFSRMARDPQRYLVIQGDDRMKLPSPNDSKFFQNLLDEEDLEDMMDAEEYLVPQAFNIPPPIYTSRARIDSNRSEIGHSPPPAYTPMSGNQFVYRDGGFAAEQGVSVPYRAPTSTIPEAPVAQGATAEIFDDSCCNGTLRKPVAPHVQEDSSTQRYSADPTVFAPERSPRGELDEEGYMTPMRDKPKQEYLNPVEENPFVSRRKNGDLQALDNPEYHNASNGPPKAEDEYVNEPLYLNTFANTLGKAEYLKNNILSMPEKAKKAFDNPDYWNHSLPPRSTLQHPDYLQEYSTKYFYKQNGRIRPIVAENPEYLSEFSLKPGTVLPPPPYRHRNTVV
Sequence of Tyrosine-protein kinase Yes (P07947 whole entry): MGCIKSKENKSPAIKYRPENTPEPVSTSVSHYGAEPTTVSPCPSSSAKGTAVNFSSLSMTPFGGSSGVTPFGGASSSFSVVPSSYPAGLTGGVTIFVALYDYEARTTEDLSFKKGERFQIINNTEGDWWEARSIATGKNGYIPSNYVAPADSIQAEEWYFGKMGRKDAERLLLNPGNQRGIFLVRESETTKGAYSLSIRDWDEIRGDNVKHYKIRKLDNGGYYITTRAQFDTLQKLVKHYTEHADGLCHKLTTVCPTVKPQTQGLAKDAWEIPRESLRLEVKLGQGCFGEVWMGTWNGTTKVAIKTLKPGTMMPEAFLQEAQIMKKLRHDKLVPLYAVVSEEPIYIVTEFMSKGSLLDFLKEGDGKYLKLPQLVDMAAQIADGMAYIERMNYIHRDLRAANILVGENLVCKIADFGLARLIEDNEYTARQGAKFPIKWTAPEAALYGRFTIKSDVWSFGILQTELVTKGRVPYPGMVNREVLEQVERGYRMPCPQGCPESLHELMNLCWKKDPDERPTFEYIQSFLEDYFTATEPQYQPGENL
Sequence of Tyrosine-protein kinase FRK (P42685 whole entry): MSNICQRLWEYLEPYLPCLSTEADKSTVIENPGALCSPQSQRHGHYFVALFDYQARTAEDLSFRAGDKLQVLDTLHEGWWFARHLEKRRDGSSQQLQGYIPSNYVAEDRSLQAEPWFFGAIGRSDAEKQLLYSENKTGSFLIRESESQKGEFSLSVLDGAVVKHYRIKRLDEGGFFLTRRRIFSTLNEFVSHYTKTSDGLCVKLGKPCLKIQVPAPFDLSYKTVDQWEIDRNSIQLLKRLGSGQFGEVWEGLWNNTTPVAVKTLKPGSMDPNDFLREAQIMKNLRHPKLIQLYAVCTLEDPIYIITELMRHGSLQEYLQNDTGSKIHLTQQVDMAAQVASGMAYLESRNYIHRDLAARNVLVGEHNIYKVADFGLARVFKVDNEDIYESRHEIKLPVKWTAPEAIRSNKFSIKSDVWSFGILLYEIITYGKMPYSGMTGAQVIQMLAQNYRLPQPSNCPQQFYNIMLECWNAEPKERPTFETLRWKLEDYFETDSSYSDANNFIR
Sequence of Tyrosine-protein kinase Lyn (P07948 whole entry): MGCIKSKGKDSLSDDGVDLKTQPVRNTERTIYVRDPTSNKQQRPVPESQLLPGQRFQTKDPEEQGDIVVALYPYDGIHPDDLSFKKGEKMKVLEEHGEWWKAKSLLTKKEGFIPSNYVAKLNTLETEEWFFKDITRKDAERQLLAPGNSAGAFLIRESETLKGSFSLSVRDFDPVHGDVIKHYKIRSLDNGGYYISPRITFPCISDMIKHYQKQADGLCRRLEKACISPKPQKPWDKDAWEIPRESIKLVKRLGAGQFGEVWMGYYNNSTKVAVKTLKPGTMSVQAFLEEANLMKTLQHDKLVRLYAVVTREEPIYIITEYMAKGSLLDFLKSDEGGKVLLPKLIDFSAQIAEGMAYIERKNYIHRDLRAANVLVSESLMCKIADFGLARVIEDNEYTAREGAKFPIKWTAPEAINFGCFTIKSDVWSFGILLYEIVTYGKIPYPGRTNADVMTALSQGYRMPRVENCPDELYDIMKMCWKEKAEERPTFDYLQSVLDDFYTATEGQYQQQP

With `CC(C)C(=O)N1CCO[C@@H](c2nc(-c3ccc(C(=O)Nc4cc(C(F)(F)F)ccn4)cc3F)c3c(N)nccn23)C1`, the Ratio IC50 turned out to be 605 in data set [1]; 2380 in data set [4]; 1170 in [8]; 973 in data set [11]; 1600 in data set [12]; 227 in [13]. For the same compound, the Ratio IC50 in data set [17] turned out to be 1600; in data set [21], 4330; in data set [23], 234; in data set [24], 1160. Moreover, the pIC50 in [2] was 6.58; in data set [3] it was 6.29; in [5] it was 6.15; in data set [6] it was 6.33; in data set [7], 5.98; in data set [9] it was 6.37. Besides, the negative-log IC50 (pIC50) in data set [10] is 9.36 to 9.40; in data set [16] it was 7.59; in data set [19] it was 5.67; in data set [20], 4.82; in data set [22] it was 6.15. Also, the results for the half-life in [14] and in data set [15] were 2.3 h and 3.9 h, respectively. In [18], the clearance turned out to be 1.4 mL/min/kg.
